The source made the active and inactive calls. No rule for the calls is given here.

Sequence of Ubiquitin-conjugating enzyme E2 N (Homo sapiens) (P61088 whole entry, looked up): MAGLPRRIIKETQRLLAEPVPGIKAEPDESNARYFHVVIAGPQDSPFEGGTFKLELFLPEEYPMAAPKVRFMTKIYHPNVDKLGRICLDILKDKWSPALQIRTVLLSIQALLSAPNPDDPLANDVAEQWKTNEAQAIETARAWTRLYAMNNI

This assay has as its target Ubiquitin-conjugating enzyme E2 N (Homo sapiens) (UniProt P61088). The assay can be described thus: NMR detection of UBE2N ligand binding – biophysical, purified protein (AID 1552). To be noted: NMR binding to purified UBE2N.
In the case of `N#Cc1c[nH]n2c(=O)cc(Cc3ccccc3)nc12`, the Kd (as a rule, the free concentration of one partner at which half of the binding sites on the other are occupied at equilibrium, for simple one-to-one binding) is > 4 mM (inactive).

With `C=CCNC(=O)c1nn2cccnc2c1Cl`, the Kd was > 4 mM (inactive).

For `O=C1CN(C(=O)c2ccccc2F)c2ccccc2N1`, the Kd is > 4 mM (inactive).

Turning to `O=c1c2ccccc2nc2n1CCS2`, the Kd was > 4 mM (inactive).

As for `NC(=O)C1(S(=O)(=O)c2ccccc2)CC1`, the Kd was > 4 mM (inactive).

Consider `Cn1c(CSc2nc3ccccc3s2)n[nH]c1=S`, for which the Kd is > 4 mM (inactive).

Turning to `O=C(O[C@@H]1Cc2c(O)cc(O)cc2O[C@@H]1c1cc(O)c(O)c(O)c1)c1cc(O)c(O)c(O)c1`, the Kd was > 4 mM (inactive).

Turning to `O=C1C2C3CCC(O3)C2C(=O)N1c1ccccc1` (stereo not given), the Kd is > 4 mM (inactive).

Regarding `COc1c(O)cc2oc3cc(O)c(CC=C(C)C)c(O)c3c(=O)c2c1CC=C(C)C`, the Kd is > 4 mM (inactive).

With `CN(C)c1ccc(N2C(=O)CCC2=O)cc1`, the Kd was > 4 mM (inactive).

For the molecule `O=C1C[C@@H](c2ccc(O)cc2)Oc2cc(O)cc(O)c21`, the Kd was > 4 mM (inactive).

For `CCOc1ccc(N2C(=O)CCC2=O)cc1`, the Kd was > 4 mM (inactive).

`O=S1(=O)CCC(NC(=S)Nc2ccc(O)cc2)C1` (stereo not given): the Kd was > 4 mM (inactive).

On to `Cc1occc1C(=O)Nc1cc(C(C)(C)C)on1`, for which the Kd is > 4 mM (inactive).

On to `COC(=O)c1cc2ccccc2cn1`, for which the Kd was > 4 mM (inactive).

`CS(=O)(=O)N1CCC(C(=O)NC2CCCC2)CC1`: the Kd is > 4 mM (inactive).

`CC1(C)C[C@@H]2C(=O)CC[C@H]3O[C@]3(C)CC[C@H]21`: the Kd was > 4 mM (inactive).

As to `CCc1c(C(=O)N2CCOCC2)csc1C`, the Kd is > 4 mM (inactive).

Take `COc1cc(S(=O)(=O)Nc2cccnc2)ccc1F`: the Kd is > 4 mM (inactive).

On to `CC1=C(/C=C/C(C)=C/C=C/C(C)=C/C=C/C=C(C)/C=C/C=C(C)/C=C/C(=O)[C@]2(C)C[C@@H](O)CC2(C)C)C(C)(C)C[C@H](O)C1`, for which the Kd was > 4 mM (inactive).

For the molecule `COc1c2c(cc3c1OCO3)CCN(C)C2`, the Kd was > 4 mM (inactive).

With `Cc1nc2ccccc2c(=O)n1NC(=O)C1CCCCC1`, the Kd was > 4 mM (inactive).

For `COC(=O)C[C@H]1C(C)(C)C(=O)[C@@H]2CC3=C4CC(=O)O[C@@H](c5ccoc5)[C@]4(C)CCC3C1(C)C2=O` (stereo not given in full), the Kd was > 4 mM (inactive).

Turning to `O=C(Nc1nnc(C(F)(F)F)s1)c1cccnc1`, the Kd is > 4 mM (inactive).

For the molecule `CC(=O)Nc1ccc(S(=O)(=O)NCC2CCCO2)cc1` (stereo not given), the Kd is > 4 mM (inactive).

`O=C1CC(N2CCC(O)CC2)C(=O)N1c1ccc(F)cc1` (stereo not given): the Kd is > 4 mM (inactive).

`Cn1c(SCC(N)=O)nc2ccccc2c1=O`: the Kd is > 4 mM (inactive).

Regarding `CCOC(=O)c1csc(N)n1`, the Kd is > 4 mM (inactive).

In the case of `CN1C(=O)c2ccc(C(=O)NCc3ccccc3)cc2C1=O`, the Kd was > 4 mM (inactive).

On to `CCOC(=O)c1csc(C)n1`, for which the Kd was > 4 mM (inactive).

Regarding `Cn1c(NCc2ccccc2O)nc2ccccc21`, the Kd is > 4 mM (inactive).

For the molecule `Nc1ccc(-n2cccc2)cc1`, the Kd was > 4 mM (inactive).

Regarding `NCc1cccc2c1OCCCO2`, the Kd is > 4 mM (inactive).

Take `O=C(Nc1ccccc1)N1CCOCC1`: the Kd is > 4 mM (inactive).

Regarding `CC1(C)NC(=O)N(CN2CCOCC2)C1=O`, the Kd was > 4 mM (inactive).

Regarding `NC1CN2CCC1CC2` (stereo not given), the Kd was > 4 mM (inactive).

Regarding `N#Cc1cc2c(nc1SCc1ccncc1)CCC2`, the Kd is > 4 mM (inactive).

For the molecule `COC(=O)c1cccc2cc[nH]c12`, the Kd is > 4 mM (inactive).

With `COc1cc(OC)c2c(=O)c(-c3ccc4c(c3)OCO4)coc2c1`, the Kd is > 4 mM (inactive).

Consider `CN(C)C(=S)Nc1nc2ccccc2s1`, for which the Kd was > 4 mM (inactive).

As for `Cc1ccc(S(=O)(=O)CC(=O)N(C)C)cc1`, the Kd was > 4 mM (inactive).

As for `Cn1c2ccccc2n2c(=S)[nH]nc12`, the Kd is > 4 mM (inactive).

In the case of `CNC(=O)c1ccccc1N`, the Kd was > 4 mM (inactive).

Turning to `Nc1nc(NCc2ccco2)nn1-c1ccccc1`, the Kd is > 4 mM (inactive).

For `O=C(NC1=NCCS1)c1ccc2snnc2c1`, the Kd is > 4 mM (inactive).

For `Cc1ccc2cc(N)ccc2n1`, the Kd is > 4 mM (inactive).

Consider `Nc1ccc2c(c1)CCCC2=O`, for which the Kd was > 4 mM (inactive).

For `O=C(NCN1CCOCC1)c1cnccn1`, the Kd was > 4 mM (inactive).

For the molecule `C=C1CCC2C(CC2(C)C)C(=O)CCC1O` (stereo not given), the Kd is > 4 mM (inactive).

For `Cc1nnc(-n2cnc3ccccc32)c2ccccc12`, the Kd was > 4 mM (inactive).

With `Cc1ccc(C(=O)NCCO)c(Cl)c1`, the Kd is > 4 mM (inactive).

In the case of `C=C1[C@H]2CC[C@@]3(C)[C@H](c4ccoc4)OC(=O)C[C@]13O[C@H]1C[C@H](O)C(C)(C)[C@H](CC(=O)OC)[C@]12C`, the Kd is > 4 mM (inactive).

For the molecule `OC[C@H]1O[C@@H](n2cnc3c(NCc4ccco4)ncnc32)[C@H](O)[C@@H]1O`, the Kd is > 4 mM (inactive).

As for `Cc1cccc(C(C)C)c1NC(=O)c1cccnc1`, the Kd is > 4 mM (inactive).

Turning to `Cc1cc(C(=O)NN2CCOCC2)c(C)o1`, the Kd was > 4 mM (inactive).

Consider `Nc1ccc(CN2CCS(=O)(=O)CC2)cc1`, for which the Kd was > 4 mM (inactive).

`COc1ccc(-c2cc(=O)c3c(O)cc(O[C@H]4O[C@H](CO[C@@H]5O[C@@H](C)[C@H](O)[C@@H](O)[C@H]5O)[C@@H](O)[C@H](O)[C@H]4O)cc3o2)cc1`: the Kd was > 4 mM (inactive).

As to `CN1CCn2c1nc(N1CCCCC1)nc2=O`, the Kd is > 4 mM (inactive).

Turning to `Oc1ccc(C2SCCS2)cc1`, the Kd is > 4 mM (inactive).

For `Cc1cc(C)n(CCC(=O)O)n1`, the Kd is > 4 mM (inactive).

For `Nc1c(Nc2ccccc2)c2ccccc2oc1=O`, the Kd is > 4 mM (inactive).

Take `CC(C)/C(O)=C1/C(=O)O[C@@H](c2ccoc2)[C@]2(C)C(O)[C@@H](O)[C@@]34OC5(C)OC67CC(C)(C(O)[C@]6(O)[C@@H](O)[C@]3(O5)C12)[C@H](CC(=O)O)[C@]74C` (stereo not given in full): the Kd was > 4 mM (inactive).

On to `COc1ccc2c(c1OC)OC[C@@H](c1ccc(OC)c(OC)c1OC)C2`, for which the Kd is > 4 mM (inactive).

As for `NCc1ccc(-c2ccccn2)s1`, the Kd is > 4 mM (inactive).

`OCc1cc(-c2cccs2)on1`: the Kd is > 4 mM (inactive).

On to `CC(C)CC(=O)Nc1c[nH]c(=O)[nH]c1=O`, for which the Kd was > 4 mM (inactive).

In the case of `Cc1oc(-c2ccccc2)cc1C(=O)O`, the Kd was > 4 mM (inactive).

Take `Cc1cccc(C)c1NC(=O)CN1CCOCC1`: the Kd is > 4 mM (inactive).

For the molecule `NC(=O)CSc1ccc2nnc(-c3ccccc3)n2n1`, the Kd was > 4 mM (inactive).

Take `CC(=O)Nc1nc2c(s1)C(=O)NCCC2`: the Kd is > 4 mM (inactive).

`COc1ccc(-c2ccc(OC)cc2C(=O)O)cc1`: the Kd is > 4 mM (inactive).

`COc1cc(C(=S)N2CCC(C(N)=O)CC2)ccc1O`: the Kd is > 4 mM (inactive).

On to `COc1cccc(N2CCN(C(=O)c3cccnc3)CC2)c1`, for which the Kd is > 4 mM (inactive).

Consider `Cc1cc(N2CCN(C)CC2)ncn1`, for which the Kd was > 4 mM (inactive).

As for `Cc1nn(-c2ccccc2)nc1CN`, the Kd was > 4 mM (inactive).

On to `Cc1nn(CC(=O)Nc2ccccn2)c(=O)c2ccccc12`, for which the Kd was > 4 mM (inactive).

Consider `O=C1NC(=Nc2ccccc2)S/C1=C/c1cccnc1`, for which the Kd was > 4 mM (inactive).

With `CC(O)c1ccc(C(C)O)cc1` (stereo not given), the Kd is > 4 mM (inactive).

Consider `CC(=O)Oc1cc2c(C(C)=O)coc2c2ccccc12`, for which the Kd is > 4 mM (inactive).

Turning to `c1ccc(CNc2ncnc3nc[nH]c23)nc1`, the Kd was > 4 mM (inactive).

Consider `O=S(=O)(Cc1ccc(Cl)cc1)N1CCCC1`, for which the Kd is > 4 mM (inactive).

Consider `O=C(O)/C=C/C(=O)Nc1ccccc1C(F)(F)F`, for which the Kd is > 4 mM (inactive).

Take `C[C@H]1O[C@@H](O[C@H]2[C@@H](O)C[C@H](O[C@H]3[C@@H](O)C[C@H](O[C@H]4CC[C@]5(C)C6C[C@@H](O)[C@]7(C)[C@@H](C8=CC(=O)OC8)CC[C@]7(O)C6CC[C@@H]5C4)O[C@@H]3C)O[C@@H]2C)C[C@H](O)[C@@H]1O` (stereo not given in full): the Kd is > 4 mM (inactive).

For the molecule `O=S(=O)(O)c1cc[n+]([O-])cc1`, the Kd is > 4 mM (inactive).

Turning to `O=C1CCC(=O)N1c1cccc([N+](=O)[O-])c1`, the Kd is > 4 mM (inactive).

As for `Cc1cc(C(=O)NC(C)c2ccncc2)cs1` (stereo not given), the Kd is > 4 mM (inactive).

With `CCC(=O)NC(=S)Nc1ccc(N2CCOCC2)cc1`, the Kd is > 4 mM (inactive).

`NS(=O)(=O)c1ccc2c3c(cccc13)C(=O)N2`: the Kd was > 4 mM (inactive).

`Cc1cc(C(=O)Nc2ccc3c(c2)OCCO3)c(C)o1`: the Kd was > 4 mM (inactive).

Consider `CC(C)=CCc1c2c(c3occ(-c4ccc(O)cc4)c(=O)c3c1O)C=CC(C)(C)O2`, for which the Kd was > 4 mM (inactive).

For the molecule `O=C(Nc1ccccc1Cl)c1cnccn1`, the Kd is > 4 mM (inactive).

For the molecule `Cc1cc(C(=O)Nc2ccon2)cs1`, the Kd was > 4 mM (inactive).

In the case of `CC(C)c1nnc(N)s1`, the Kd was > 4 mM (inactive).

In the case of `CSc1nc(NC(C)(C)C)nc(N2CCOCC2)n1`, the Kd is > 4 mM (inactive).

As for `Fc1ccc(Br)cc1/C=N/n1cnnc1`, the Kd is > 4 mM (inactive).

In the case of `CC(C)(C)c1cc(N)n[nH]1`, the Kd is > 4 mM (inactive).

Regarding `CCOC(=O)c1[nH]c(C)cc1C`, the Kd was > 4 mM (inactive).

As to `O=C(NCc1ccccc1Br)c1ccco1`, the Kd is > 4 mM (inactive).

Take `O=C(O)C1CCN(S(=O)(=O)c2cccs2)CC1`: the Kd is > 4 mM (inactive).

As to `Cc1cc(O)cc(=O)n1CCCC(=O)O`, the Kd is > 4 mM (inactive).

The record behind these values is PubChem BioAssay AID1552 (Sanford-Burnham Center for Chemical Genomics, 2009).
